Molecular target: p38 (Homo sapiens, UniProt Q16539)
Assay: Protein Kinase Assay (33P incorporation from γ-[33P]ATP into GST-ATF-2)
Format: biochemical
Details: 2 nM p38, preincubated 20 min at 30° C.; 10 uM cold ATP, 2 uM GST-ATF2, 70 min; read-out: ACT. (Activity), IC50 category in Protein Kinase Assay
Protocol: Protein Kinase Assay. The protein kinase activity of p38 was determined by measuring the incorporation of ^33P from γ-[^33P]ATP into the GST-ATF-2 substrate, amino acids 19-96 (Upstate, N.Y. USA). The reactions were carried out in a final volume of 50 μL of 24 mM Tris-HCl buffer, pH 7.5, containing 13 mM MgCl2, 12% Glycerol, 2% DMSO, 2 mM DTT, […] of γ-[^33P]ATP (1000 Ci/mmol; 1 Ci=37 GBq) (GE Healthcare, Piscataway, N.J.), 10 uM cold ATP (GE Healthcare, Piscataway, N.J.), and 2 uM GST-ATF2. Compounds were preincubated with 2 nM p38 for 20 min at 30° C.; the reactions were initiated by the addition of GST-ATF2 and ATP and incubated for 70 min at 30° C. before being stopped by the addition of 10 μL of 600 mM phosphoric acid. The phosphorylated substrate was captured on phosphocellulose 96-well plate (Millipore MAPHNOB 10), washed with 100 mM phosphoric acid, and counted in a BeckmenCoulter LS6500 liquid scintillation counter. […] (Activity).

p38, sequence (Q16539 whole entry): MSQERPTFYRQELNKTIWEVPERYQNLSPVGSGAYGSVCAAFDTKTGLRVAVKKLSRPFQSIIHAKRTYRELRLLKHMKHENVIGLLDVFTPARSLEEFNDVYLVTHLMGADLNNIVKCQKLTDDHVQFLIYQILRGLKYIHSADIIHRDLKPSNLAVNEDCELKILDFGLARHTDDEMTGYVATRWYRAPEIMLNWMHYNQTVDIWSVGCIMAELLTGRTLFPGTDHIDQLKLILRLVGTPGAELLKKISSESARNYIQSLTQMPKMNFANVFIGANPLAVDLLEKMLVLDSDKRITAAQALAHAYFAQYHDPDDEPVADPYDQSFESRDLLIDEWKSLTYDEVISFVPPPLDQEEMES

`COc1ccc(NC(=O)Nc2sc(C(C)(C)C)cc2C(=O)N2CCNC(=O)C2(C)C)c(C)c1-c1ccncc1` [1-(5-tert-butyl-3-(2,2-dimethyl-3-oxopiperazine-1-carbonyl)thiophen-2-yl)-3-(4-methoxy-2-methyl-3-(pyridin-4-yl)phenyl)urea] and `CCc1ccc(-c2cc(NC(=O)Nc3sc(C(C)(C)C)cc3C(=O)N3CCNC(=O)C3(C)C)ccc2C)cn1` [1-(5-tert-butyl-3-(2,2-dimethyl-3-oxopiperazine-1-carbonyl)thiophen-2-yl)-3-(3-(6-ethylpyridin-3-yl)-4-methylphenyl)urea] cannot be ordered by IC50: less than 100 nM for the first, less than 100 nM for the second.

`Cc1ccc(NC(=O)Nc2sc(C(C)(C)C)cc2C(=O)N2CCNC(=O)C2(C)C)cc1-c1ccc(N(C)C)nc1` [1-(5-tert-butyl-3-(2,2-dimethyl-3-oxopiperazine-1-carbonyl)thiophen-2-yl)-3-(3-(6-(dimethylamino)pyridin-3-yl)-4-methylphenyl)urea] and `Cc1ccc(NC(=O)Nc2sc(C(C)(C)C)cc2C(=O)N2CCNC(=O)C2(C)C)cc1-c1ccc(NCC(C)C)nc1` [1-(5-tert-butyl-3-(2,2-dimethyl-3-oxopiperazine-1-carbonyl)thiophen-2-yl)-3-(3-(6-(isobutylamino)pyridin-3-yl)-4-methylphenyl)urea] cannot be ordered by IC50: less than 100 nM for the first, less than 100 nM for the second.

`Cc1ccc(NC(=O)Nc2sc(C(C)(C)C)cc2C(=O)N2CCN(C)C(=O)C2(C)C)cc1-c1ccc(CN2CCOCC2)nc1` [1-(5-tert-butyl-3-(2,2,4-trimethyl-3-oxopiperazine-1-carbonyl)thiophen-2-yl)-3-(4-methyl-3-(6-(morpholinomethyl)pyridin-3-yl)phenyl)urea] and `Cc1ccc(NC(=O)Nc2sc(C(C)(C)C)cc2C(=O)N2CCN(C)C(=O)C2(C)C)cc1-c1ccc(CN2CCCC2)nc1` [1-(5-tert-butyl-3-(2,2,4-trimethyl-3-oxopiperazine-1-carbonyl)thiophen-2-yl)-3-(4-methyl-3-(6-(pyrrolidin-1-ylmethyl)pyridin-3-yl)phenyl)urea] cannot be ordered by IC50: less than 100 nM for the first, less than 100 nM for the second.

`Cc1ccc(NC(=O)Nc2cn(C(C)(C)C)nc2C(=O)N2CCN(C3CCN(C)C3)C(=O)C2(C)C)cc1-c1cccnc1` (stereo not drawn) [1-(1-tert-butyl-3-(2,2-dimethyl-4-(1-methylpyrrolidin-3-yl)-3-oxopiperazine-1-carbonyl)-1H-pyrazol-4-yl)-3-(4-methyl-3-(pyridin-3-yl)phenyl)urea] and `COc1ccc(-c2cc(NC(=O)Nc3cc(C(C)(C)C)sc3C(=O)N3CCN(C)C(=O)C3(C)C)ccc2C)cn1` [1-(5-tert-butyl-2-(2,2,4-trimethyl-3-oxopiperazine-1-carbonyl)thiophen-3-yl)-3-(3-(6-methoxypyridin-3-yl)-4-methylphenyl)urea] cannot be ordered by IC50: less than 1000 nM for the first, less than 100 nM for the second.

`COCCOc1ccc(-c2cc(NC(=O)Nc3sc(C(C)(C)C)cc3C(=O)N3CCN(C)C(=O)C3(C)C)ccc2C)cn1` [1-(5-tert-butyl-3-(2,2,4-trimethyl-3-oxopiperazine-1-carbonyl)thiophen-2-yl)-3-(3-(6-(2-methoxyethoxy)pyridin-3-yl)-4-methylphenyl)urea] and `Cc1ccc(NC(=O)Nc2sc(C(C)(C)C)cc2C(=O)N2CCN(C)C(=O)C2(C)C)cc1-c1ccc(C(N)=O)nc1` [5-(5-(3-(5-tert-butyl-3-(2,2,4-trimethyl-3-oxopiperazine-1-carbonyl)thiophen-2-yl)ureido)-2-methylphenyl)pyridine-2-carboxamide] cannot be ordered by IC50: less than 100 nM for the first, less than 100 nM for the second.

`Cc1ccc(NC(=O)Nc2sc(C(C)(C)C)cc2C(=O)N2CCNC(=O)C2(C)C)cc1-c1ccc(OCCN2CCCCC2)nc1` [1-(5-tert-butyl-3-(2,2-dimethyl-3-oxopiperazine-1-carbonyl)thiophen-2-yl)-3-(4-methyl-3-(6-(2-(piperidin-1-yl)ethoxy)pyridin-3-yl)phenyl)urea] and `Cc1ccc(NC(=O)Nc2sc(C(C)(C)C)cc2C(=O)N2CCNC(=O)C2(C)C)cc1-c1ccc(N2CCN(C)CC2)nc1` [1-(5-tert-butyl-3-(2,2-dimethyl-3-oxopiperazine-1-carbonyl)thiophen-2-yl)-3-(4-methyl-3-(6-(4-methylpiperazin-1-yl)pyridin-3-yl)phenyl)urea] cannot be ordered by IC50: less than 100 nM for the first, less than 100 nM for the second.

`COc1ccc(-c2cc(NC(=O)Nc3sc(C(C)(C)C)cc3C(=O)N3CCC(=O)N(C)CC3)ccc2C)cn1` [1-(5-tert-butyl-3-(4-methyl-5-oxo-1,4-diazepane-1-carbonyl)thiophen-2-yl)-3-(3-(6-methoxypyridin-3-yl)-4-methylphenyl)urea] and `Cc1ccc(NC(=O)Nc2sc(C(C)(C)C)cc2C(=O)N2CCN(C)C(=O)C2(C)C)cc1-c1ccc(C(C)(C)O)nc1` [1-(5-tert-butyl-3-(2,2,4-trimethyl-3-oxopiperazine-1-carbonyl)thiophen-2-yl)-3-(3-(6-(2-hydroxypropan-2-yl)pyridin-3-yl)-4-methylphenyl)urea] cannot be ordered by IC50: less than 100 nM for the first, less than 100 nM for the second.

`Cc1ccc(NC(=O)Nc2sc(C(C)(C)C)cc2C(=O)N2CCNC(=O)C2(C)C)cc1C#CCN1CCOCC1` [1-(5-tert-butyl-3-(2,2-dimethyl-3-oxopiperazine-1-carbonyl)thiophen-2-yl)-3-(4-methyl-3-(3-morpholinoprop-1-ynyl)phenyl)urea] and `Cc1ccc(NC(=O)Nc2sc(C(C)(C)C)cc2C(=O)N2CCNC(=O)C2(C)C)cc1C#CCOC1CCOCC1` [1-(5-tert-butyl-3-(2,2-dimethyl-3-oxopiperazine-1-carbonyl)thiophen-2-yl)-3-(4-methyl-3-(3-(tetrahydro-2H-pyran-4-yloxy)prop-1-ynyl)phenyl)urea] cannot be ordered by IC50: less than 100 nM for the first, less than 100 nM for the second.

`Cc1ccc(NC(=O)Nc2sc(C(C)(C)C)cc2C(=O)N2CCNC(=O)C2(C)C)cc1C#Cc1ccccn1` [1-(5-tert-butyl-3-(2,2-dimethyl-3-oxopiperazine-1-carbonyl)thiophen-2-yl)-3-(4-methyl-3-(pyridin-2-ylethynyl)phenyl)urea] and `Cc1ccc(NC(=O)Nc2sc(C(C)(C)C)cc2C(=O)N2CCNC(=O)C2(C)C)cc1-c1ncccn1` [1-(5-tert-butyl-3-(2,2-dimethyl-3-oxopiperazine-1-carbonyl)thiophen-2-yl)-3-(4-methyl-3-(pyrimidin-2-yl)phenyl)urea] cannot be ordered by IC50: less than 100 nM for the first, less than 100 nM for the second.

`COc1ccc(-c2cc(NC(=O)Nc3cc(C(C)(C)C)sc3C(=O)N3CCNC(=O)C3(C)C)ccc2C)cn1` [1-(5-tert-butyl-2-(2,2-dimethyl-3-oxopiperazine-1-carbonyl)thiophen-3-yl)-3-(3-(6-methoxypyridin-3-yl)-4-methylphenyl)urea] and `COc1ccc(-c2cc(NC(=O)Nc3cc(C(C)(C)C)sc3C(=O)N3CCN(C)C(=O)C3(C)C)cc(F)c2C)cn1` [1-(5-tert-butyl-2-(2,2,4-trimethyl-3-oxopiperazine-1-carbonyl)thiophen-3-yl)-3-(3-fluoro-5-(6-methoxypyridin-3-yl)-4-methylphenyl)urea] cannot be ordered by IC50: less than 100 nM for the first, less than 100 nM for the second.

`CN(C)CCOc1ccc(-c2cccc(NC(=O)Nc3sc(C(C)(C)C)cc3C(=O)N3CCNC(=O)C3(C)C)c2)cn1` [1-(5-tert-butyl-3-(2,2-dimethyl-3-oxopiperazine-1-carbonyl)thiophen-2-yl)-3-(3-(6-(2-(dimethylamino)ethoxy)pyridin-3-yl)phenyl)urea] and `CC(C)(C)c1cc(C(=O)N2CCNC(=O)C2(C)C)c(NC(=O)Nc2cccc(-c3cccnc3)c2)s1` [1-(5-tert-butyl-3-(2,2-dimethyl-3-oxopiperazine-1-carbonyl)thiophen-2-yl)-3-(3-(pyridin-3-yl)phenyl)urea] cannot be ordered by IC50: less than 100 nM for the first, less than 100 nM for the second.

`Cc1ccc(NC(=O)Nc2sc(C(C)(C)C)cc2C(=O)N2CCNC(=O)C2(C)C)cc1-c1ccc(N2CCC(N(C)C)C2)nc1` (stereo not drawn) [1-(5-tert-butyl-3-(2,2-dimethyl-3-oxopiperazine-1-carbonyl)thiophen-2-yl)-3-(3-(6-(3-(dimethylamino)pyrrolidin-1-yl)pyridin-3-yl)-4-methylphenyl)urea] and `Cc1ccc(NC(=O)Nc2sc(C(C)(C)C)cc2C(=O)N2CCNC(=O)C2(C)C)cc1-c1ccc(N2CCC(N)C2)nc1` (stereo not drawn) [1-(3-(6-(3-aminopyrrolidin-1-yl)pyridin-3-yl)-4-methylphenyl)-3-(5-tert-butyl-3-(2,2-dimethyl-3-oxopiperazine-1-carbonyl)thiophen-2-yl)urea] cannot be ordered by IC50: less than 100 nM for the first, less than 100 nM for the second.

`Cc1ccc(NC(=O)Nc2sc(C(C)(C)C)cc2C(=O)N2CCN(C)C(=O)C2(C)C)cc1-c1ccc(C[N+]2([O-])CCOCC2)nc1` [4-((5-(5-(3-(5-tert-butyl-3-(2,2,4-trimethyl-3-oxopiperazine-1-carbonyl)thiophen-2-yl)ureido)-2-methylphenyl)pyridin-2-yl)methyl)morpholine 4-oxide] and `CCN1CCN(C(=O)c2sc(C(C)(C)C)cc2NC(=O)Nc2ccc(C)c(-c3ccc(CN4CCOCC4)nc3)c2)C(C)(C)C1=O` [1-(5-tert-butyl-2-(4-ethyl-2,2-dimethyl-3-oxopiperazine-1-carbonyl)thiophen-3-yl)-3-(4-methyl-3-(6-(morpholinomethyl)pyridin-3-yl)phenyl)urea] cannot be ordered by IC50: less than 100 nM for the first, less than 100 nM for the second.

In the case of `CC(C)(C)c1cc(C(=O)N2CCNC(=O)C2(C)C)c(NC(=O)Nc2cccc(-c3ccnc(F)c3)c2)s1` [1-(5-tert-butyl-3-(2,2-dimethyl-3-oxopiperazine-1-carbonyl)thiophen-2-yl)-3-(3-(2-fluoropyridin-4-yl)phenyl)urea], the IC50 is reported as less than 100 nM.

— patent US20100041642A1, “UREA INHIBITORS OF MAP KINASES” (LOCUS PHARMACEUTICALS, INC., priority 2008, published 2010)
